Assay results reported in US10537545B2, “Ceramide derivatives as anticancer agents” (Rutgers, The State University of New Jersey, priority 2015, dated 2020).

Key:
MCF7 [1] = conditions: reported in Andrianasolo et al., J. Nat. Prod. 2011, read-out: IC50, growth inhibition of MCF7 (breast cancer); cited from earlier work
HELA [2] = assay: Cytotoxicity assay, HELA cancer cell line; assay type: cell-based; conditions: for CTRL HELA (growth relative to control): control = 1; for Growth HELA: control growth 0.55
Procedure: (§1) Cytotoxicity Assay. […] Cells were treated with varying concentrations of compounds. The IC50 were measured. […] In order to verify that assumption an LDH (Lactate Dehydrogenase) assay was performed.

HELA [3] = conditions: reported in Andrianasolo et al., J. Nat. Prod. 2011, read-out: IC50, growth inhibition of HeLa (cervical cancer); cited from earlier work
MCF7 [4] = assay: Cytotoxicity assay, MCF7 cancer cell line; assay type: cell-based, human; conditions: for CTRL MCF7 (growth relative to control): control = 1; for Growth MCF7: control growth 0.7
Procedure: as §1

HDAC2 = HDAC2 (Homo sapiens, UniProt Q92769); assay: HDAC inhibitor assay, HDAC2; assay type: biochemical; conditions: up to 50 or 100 μM
Text: (§2) Compound VIII was subjected to enzymatic inhibition test against the class I (HDAC1, HDAC2, HDAC3 and HDAC8), the class II A (HDAC4, HDAC5, HDAC7 and HDAC9) and the class II B (HDAC6) enzymes. HDAC inhibitors Trichostatin A (TSA) and TMP269 (TMP) were used as reference compounds.

HDAC1 = HDAC1 (Homo sapiens, UniProt Q13547); assay: HDAC inhibitor assay, HDAC1; assay type: biochemical; conditions: up to 50 or 100 μM
Text: as §2

HDAC4 = HDAC4 (Homo sapiens, UniProt P56524); assay: HDAC inhibitor assay, HDAC4; assay type: biochemical; conditions: up to 50 or 100 μM
Text: as §2

HDAC6 = molecular target: T1, HDAC6 (Homo sapiens, UniProt Q9UBN7); assay: HDAC inhibitor assay, HDAC6; assay type: biochemical; conditions: class II B HDAC6; read-out: IC50, inhibition of HDAC6
T1 sequence (Q9UBN7 1-1215): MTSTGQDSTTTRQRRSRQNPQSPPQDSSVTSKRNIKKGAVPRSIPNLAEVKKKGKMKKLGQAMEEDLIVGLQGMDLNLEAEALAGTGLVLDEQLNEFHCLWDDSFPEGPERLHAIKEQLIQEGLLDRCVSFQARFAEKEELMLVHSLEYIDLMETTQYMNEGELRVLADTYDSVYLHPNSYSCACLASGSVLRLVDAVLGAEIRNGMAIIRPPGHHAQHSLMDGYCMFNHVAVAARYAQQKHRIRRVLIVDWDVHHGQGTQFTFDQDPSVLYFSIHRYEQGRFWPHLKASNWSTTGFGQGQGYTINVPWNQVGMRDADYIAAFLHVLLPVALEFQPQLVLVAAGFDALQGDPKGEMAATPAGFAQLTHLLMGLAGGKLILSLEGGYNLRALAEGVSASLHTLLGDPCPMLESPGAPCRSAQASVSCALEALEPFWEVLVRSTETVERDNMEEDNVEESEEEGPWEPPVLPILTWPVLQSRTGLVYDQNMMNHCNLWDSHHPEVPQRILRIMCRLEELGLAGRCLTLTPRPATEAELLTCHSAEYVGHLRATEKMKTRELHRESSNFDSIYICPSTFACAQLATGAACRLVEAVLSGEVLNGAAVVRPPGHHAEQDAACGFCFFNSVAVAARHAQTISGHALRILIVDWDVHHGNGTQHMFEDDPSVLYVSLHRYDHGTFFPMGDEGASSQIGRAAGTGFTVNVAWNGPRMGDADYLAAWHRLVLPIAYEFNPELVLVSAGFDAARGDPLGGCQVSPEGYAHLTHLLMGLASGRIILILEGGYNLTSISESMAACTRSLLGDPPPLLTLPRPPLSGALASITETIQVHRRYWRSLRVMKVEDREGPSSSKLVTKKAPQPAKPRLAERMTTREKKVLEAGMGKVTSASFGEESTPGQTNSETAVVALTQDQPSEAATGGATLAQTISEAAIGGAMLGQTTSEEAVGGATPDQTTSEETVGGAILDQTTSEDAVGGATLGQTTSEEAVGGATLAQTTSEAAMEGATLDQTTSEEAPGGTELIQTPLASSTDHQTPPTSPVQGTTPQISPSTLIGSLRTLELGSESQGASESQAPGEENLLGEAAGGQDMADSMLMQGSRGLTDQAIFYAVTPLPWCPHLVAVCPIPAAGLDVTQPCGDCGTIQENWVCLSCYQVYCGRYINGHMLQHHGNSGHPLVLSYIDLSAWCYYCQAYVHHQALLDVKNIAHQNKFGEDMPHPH
Text: as §2

HDAC8 = molecular target: T2, HDAC8 (Homo sapiens, UniProt Q9BY41); assay: HDAC inhibitor assay, HDAC8; assay type: biochemical; conditions: up to 50 or 100 μM
T2 sequence (Q9BY41 1-377): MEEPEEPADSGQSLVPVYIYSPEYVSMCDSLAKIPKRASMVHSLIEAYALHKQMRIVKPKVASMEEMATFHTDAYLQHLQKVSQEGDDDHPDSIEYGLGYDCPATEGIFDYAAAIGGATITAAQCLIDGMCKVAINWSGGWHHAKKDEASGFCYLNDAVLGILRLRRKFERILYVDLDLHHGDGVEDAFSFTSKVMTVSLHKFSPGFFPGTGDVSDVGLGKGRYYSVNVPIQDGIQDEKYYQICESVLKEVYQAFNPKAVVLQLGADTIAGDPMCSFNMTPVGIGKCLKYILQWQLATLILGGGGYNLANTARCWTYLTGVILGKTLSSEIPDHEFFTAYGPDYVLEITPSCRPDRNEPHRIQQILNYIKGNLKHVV
Text: as §2

HDAC3 = HDAC3 (Homo sapiens, UniProt O15379); assay: HDAC inhibitor assay, HDAC3; assay type: biochemical; conditions: up to 50 or 100 μM
Text: as §2

HDAC9 = HDAC9 (Homo sapiens, UniProt Q9UKV0); assay: HDAC inhibitor assay, HDAC9; assay type: biochemical; conditions: up to 50 or 100 μM
Text: as §2

HDAC7 = molecular target: T3, HDAC7 (Homo sapiens, UniProt Q8WUI4); assay: HDAC inhibitor assay, HDAC7; assay type: biochemical; conditions: up to 50 or 100 μM
T3 sequence (Q8WUI4 1-952): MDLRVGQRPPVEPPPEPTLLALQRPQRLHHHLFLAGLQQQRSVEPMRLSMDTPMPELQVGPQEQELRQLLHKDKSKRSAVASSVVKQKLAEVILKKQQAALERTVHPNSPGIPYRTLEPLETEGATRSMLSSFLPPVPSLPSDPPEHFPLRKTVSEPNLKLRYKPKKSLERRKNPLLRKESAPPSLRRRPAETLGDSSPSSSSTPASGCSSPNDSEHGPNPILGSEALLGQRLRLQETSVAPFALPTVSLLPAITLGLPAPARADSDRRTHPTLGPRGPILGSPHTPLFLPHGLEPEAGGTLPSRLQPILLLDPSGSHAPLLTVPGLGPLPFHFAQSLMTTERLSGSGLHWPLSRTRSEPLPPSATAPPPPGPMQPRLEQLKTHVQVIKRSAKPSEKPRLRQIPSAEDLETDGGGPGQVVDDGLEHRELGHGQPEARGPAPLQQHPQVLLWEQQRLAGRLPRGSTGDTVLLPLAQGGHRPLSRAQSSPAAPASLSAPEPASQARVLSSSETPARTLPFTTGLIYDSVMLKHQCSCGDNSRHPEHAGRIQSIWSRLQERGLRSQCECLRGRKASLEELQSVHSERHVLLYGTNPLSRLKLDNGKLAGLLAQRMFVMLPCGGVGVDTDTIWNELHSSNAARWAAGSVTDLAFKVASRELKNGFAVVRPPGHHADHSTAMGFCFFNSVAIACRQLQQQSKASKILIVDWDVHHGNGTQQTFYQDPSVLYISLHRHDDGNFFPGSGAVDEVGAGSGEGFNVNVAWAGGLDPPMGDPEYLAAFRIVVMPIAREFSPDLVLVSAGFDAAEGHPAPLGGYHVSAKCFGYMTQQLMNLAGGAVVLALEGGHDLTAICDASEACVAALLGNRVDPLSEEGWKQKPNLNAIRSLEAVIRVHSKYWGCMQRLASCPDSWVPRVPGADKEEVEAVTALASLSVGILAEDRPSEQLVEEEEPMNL
Text: as §2

HDAC5 = HDAC5 (Homo sapiens, UniProt Q9UQL6); assay: HDAC inhibitor assay, HDAC5; assay type: biochemical; conditions: up to 50 or 100 μM
Text: as §2

Sequence of HDAC4 (P56524 whole entry, species assumed): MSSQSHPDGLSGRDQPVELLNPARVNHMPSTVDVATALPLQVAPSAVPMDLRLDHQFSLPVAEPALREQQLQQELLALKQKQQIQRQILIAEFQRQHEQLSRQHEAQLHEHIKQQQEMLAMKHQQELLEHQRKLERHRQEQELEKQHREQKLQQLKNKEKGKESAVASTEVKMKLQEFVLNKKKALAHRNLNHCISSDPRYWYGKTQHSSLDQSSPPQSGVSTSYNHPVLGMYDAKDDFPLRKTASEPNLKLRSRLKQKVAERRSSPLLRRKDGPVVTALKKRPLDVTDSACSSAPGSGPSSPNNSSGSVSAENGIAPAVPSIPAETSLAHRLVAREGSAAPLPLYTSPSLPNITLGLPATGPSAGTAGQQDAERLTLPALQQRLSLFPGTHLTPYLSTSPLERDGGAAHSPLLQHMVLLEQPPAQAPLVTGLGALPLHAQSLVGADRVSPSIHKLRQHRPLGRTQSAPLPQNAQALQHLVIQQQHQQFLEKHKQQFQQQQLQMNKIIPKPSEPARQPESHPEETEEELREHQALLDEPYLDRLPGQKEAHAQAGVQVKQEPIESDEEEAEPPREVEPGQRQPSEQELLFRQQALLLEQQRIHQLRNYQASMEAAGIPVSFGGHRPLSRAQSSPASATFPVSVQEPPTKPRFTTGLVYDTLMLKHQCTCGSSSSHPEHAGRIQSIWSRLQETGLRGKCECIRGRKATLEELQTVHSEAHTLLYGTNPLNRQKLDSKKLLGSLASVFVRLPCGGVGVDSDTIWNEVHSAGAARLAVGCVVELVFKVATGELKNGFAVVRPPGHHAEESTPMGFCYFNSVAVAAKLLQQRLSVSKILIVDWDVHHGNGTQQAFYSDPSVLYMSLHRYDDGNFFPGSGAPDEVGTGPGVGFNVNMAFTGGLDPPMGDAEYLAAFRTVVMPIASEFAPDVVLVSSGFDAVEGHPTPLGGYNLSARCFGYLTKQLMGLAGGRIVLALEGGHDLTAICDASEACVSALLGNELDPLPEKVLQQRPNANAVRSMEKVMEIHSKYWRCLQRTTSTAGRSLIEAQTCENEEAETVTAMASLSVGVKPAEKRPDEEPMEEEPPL
Sequence of HDAC2 (Q92769 whole entry, species assumed): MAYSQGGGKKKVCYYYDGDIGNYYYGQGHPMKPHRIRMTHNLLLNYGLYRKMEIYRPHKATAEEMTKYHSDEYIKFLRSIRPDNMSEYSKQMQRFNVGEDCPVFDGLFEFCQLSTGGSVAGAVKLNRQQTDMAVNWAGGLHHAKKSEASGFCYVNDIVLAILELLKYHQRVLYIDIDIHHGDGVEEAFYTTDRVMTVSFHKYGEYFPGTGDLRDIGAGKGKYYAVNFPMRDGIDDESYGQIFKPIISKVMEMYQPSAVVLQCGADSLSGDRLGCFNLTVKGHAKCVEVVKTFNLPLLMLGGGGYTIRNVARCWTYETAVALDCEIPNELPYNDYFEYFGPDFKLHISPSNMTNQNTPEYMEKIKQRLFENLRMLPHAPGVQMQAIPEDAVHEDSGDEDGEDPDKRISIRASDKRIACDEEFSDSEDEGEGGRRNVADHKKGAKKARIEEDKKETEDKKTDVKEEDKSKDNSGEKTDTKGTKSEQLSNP
Sequence of HDAC1 (Q13547 whole entry, species assumed): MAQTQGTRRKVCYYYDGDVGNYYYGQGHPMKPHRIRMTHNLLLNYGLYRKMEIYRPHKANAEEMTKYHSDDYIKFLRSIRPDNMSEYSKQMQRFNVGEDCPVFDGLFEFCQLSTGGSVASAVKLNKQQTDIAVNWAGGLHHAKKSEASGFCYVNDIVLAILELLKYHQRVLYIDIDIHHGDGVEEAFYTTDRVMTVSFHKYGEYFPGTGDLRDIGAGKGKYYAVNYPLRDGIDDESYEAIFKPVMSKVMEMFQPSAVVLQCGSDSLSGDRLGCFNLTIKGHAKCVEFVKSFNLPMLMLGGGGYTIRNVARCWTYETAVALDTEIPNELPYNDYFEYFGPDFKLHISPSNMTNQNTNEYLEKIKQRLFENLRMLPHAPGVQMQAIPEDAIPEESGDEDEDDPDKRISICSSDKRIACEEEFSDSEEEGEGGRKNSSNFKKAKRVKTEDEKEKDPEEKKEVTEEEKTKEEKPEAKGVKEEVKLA
Sequence of HDAC9 (Q9UKV0 whole entry, species assumed): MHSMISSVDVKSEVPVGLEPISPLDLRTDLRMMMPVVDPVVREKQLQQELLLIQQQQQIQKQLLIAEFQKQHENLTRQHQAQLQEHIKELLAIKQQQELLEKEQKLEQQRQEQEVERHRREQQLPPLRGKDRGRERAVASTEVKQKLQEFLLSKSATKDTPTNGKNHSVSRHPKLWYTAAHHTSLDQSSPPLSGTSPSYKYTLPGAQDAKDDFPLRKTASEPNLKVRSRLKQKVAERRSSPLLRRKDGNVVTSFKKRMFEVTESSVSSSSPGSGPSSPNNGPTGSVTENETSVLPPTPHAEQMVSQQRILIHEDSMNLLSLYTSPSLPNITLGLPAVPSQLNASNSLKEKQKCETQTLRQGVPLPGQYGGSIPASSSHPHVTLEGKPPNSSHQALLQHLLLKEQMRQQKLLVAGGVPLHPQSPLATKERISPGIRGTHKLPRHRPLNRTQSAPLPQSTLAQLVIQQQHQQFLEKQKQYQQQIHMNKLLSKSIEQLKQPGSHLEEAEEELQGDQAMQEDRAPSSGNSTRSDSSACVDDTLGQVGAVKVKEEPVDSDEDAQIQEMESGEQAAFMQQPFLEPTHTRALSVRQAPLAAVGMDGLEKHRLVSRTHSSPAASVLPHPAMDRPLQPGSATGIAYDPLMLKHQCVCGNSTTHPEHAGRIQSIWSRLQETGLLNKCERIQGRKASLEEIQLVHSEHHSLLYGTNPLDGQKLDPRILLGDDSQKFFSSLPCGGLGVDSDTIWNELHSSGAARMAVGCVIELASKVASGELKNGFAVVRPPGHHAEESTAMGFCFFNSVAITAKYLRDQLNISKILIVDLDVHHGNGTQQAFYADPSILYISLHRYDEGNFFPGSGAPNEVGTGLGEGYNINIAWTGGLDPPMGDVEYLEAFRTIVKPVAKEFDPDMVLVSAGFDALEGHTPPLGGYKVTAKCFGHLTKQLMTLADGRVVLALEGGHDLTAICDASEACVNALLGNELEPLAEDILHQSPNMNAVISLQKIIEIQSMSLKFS
Sequence of HDAC5 (Q9UQL6 whole entry, species assumed): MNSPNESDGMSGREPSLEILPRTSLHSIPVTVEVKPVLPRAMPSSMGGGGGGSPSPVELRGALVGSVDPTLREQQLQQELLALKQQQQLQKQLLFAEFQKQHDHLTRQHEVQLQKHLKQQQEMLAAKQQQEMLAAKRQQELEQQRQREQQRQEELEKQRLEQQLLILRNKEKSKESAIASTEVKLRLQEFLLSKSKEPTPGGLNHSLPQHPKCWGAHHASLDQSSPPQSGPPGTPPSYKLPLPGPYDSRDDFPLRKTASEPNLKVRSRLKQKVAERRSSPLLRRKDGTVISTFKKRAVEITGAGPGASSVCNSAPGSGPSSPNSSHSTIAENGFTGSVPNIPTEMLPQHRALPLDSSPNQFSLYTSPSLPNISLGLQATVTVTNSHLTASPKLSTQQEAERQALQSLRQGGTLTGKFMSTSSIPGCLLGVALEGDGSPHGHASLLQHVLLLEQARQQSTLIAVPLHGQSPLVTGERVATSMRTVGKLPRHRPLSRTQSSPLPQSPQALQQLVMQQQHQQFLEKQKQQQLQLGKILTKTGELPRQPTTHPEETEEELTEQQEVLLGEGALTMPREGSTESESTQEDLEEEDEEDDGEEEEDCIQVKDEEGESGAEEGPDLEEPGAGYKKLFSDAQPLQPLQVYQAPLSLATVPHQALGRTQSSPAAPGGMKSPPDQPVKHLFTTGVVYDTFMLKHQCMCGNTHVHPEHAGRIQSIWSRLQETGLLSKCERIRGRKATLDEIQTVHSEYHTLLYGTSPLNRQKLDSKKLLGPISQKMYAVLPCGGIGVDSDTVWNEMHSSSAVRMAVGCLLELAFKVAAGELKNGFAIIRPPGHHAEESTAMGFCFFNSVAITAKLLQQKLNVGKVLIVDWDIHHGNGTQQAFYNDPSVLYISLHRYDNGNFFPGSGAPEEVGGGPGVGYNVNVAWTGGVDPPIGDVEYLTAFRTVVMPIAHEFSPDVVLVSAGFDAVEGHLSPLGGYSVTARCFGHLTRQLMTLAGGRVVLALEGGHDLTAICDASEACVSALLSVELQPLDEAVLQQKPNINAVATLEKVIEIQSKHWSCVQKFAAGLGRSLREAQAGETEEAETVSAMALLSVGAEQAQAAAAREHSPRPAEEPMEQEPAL
Sequence of HDAC3 (O15379 whole entry, species assumed): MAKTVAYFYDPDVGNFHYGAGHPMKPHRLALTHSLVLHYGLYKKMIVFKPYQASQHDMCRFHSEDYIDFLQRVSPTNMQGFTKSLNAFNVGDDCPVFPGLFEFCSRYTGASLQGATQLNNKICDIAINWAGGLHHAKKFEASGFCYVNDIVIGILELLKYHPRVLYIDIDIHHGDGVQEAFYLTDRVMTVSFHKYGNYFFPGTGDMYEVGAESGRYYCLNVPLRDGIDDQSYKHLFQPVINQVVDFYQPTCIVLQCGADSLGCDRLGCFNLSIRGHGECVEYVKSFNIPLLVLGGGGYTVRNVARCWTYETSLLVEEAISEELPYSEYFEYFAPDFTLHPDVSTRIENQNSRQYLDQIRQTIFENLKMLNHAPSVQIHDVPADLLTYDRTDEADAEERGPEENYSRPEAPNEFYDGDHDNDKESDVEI
Sequence of HDAC3 (Q9Y618 395-489 partner limits assumed, species assumed): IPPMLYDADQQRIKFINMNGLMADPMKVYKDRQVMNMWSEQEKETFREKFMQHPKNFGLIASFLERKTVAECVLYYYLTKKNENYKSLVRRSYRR

| Inhibition of HDAC2 (HDAC2) | Inhibition of HDAC1 (HDAC1) | Inhibition of HDAC4 (HDAC4) | IC50 (HDAC6) [µM] | Inhibition of HDAC8 (HDAC8) | Inhibition of HDAC3 (HDAC3) | Inhibition of HDAC9 (HDAC9) | Inhibition of HDAC7 (HDAC7) | Inhibition of HDAC5 (HDAC5) | Structure (SMILES) | IC50 (MCF7 [1]) [nM] | CTRL HELA (growth relative to control) (HELA [2]; 72 μg*0.01/ml) | Growth HELA (HELA [2]; 72 μg*0.01/ml) | CTRL HELA (growth relative to control) (HELA [2]; 360 μg*0.01/ml) | Growth HELA (HELA [2]; 360 μg*0.01/ml) | IC50 (HELA [3]) [nM] | CTRL MCF7 (growth relative to control) (MCF7 [4]; 72 μg*0.01/ml) | Growth MCF7 (MCF7 [4]; 72 μg*0.01/ml) | CTRL MCF7 (growth relative to control) (MCF7 [4]; 360 μg*0.01/ml) | Growth MCF7 (MCF7 [4]; 360 μg*0.01/ml) |
| --- | --- | --- | --- | --- | --- | --- | --- | --- | --- | --- | --- | --- | --- | --- | --- | --- | --- | --- | --- |
|  |  |  |  |  |  |  |  |  | CCC/C=C\C/C=C\C/C=C\CCCCC(=O)O[C@@H](COC(=O)CCCCCCCCCCCCCCC)[C@H](O)[C@H](CO)NC(=O)CCCCCCCCCCC (relative stereo) [compound 1] | 100 | 0.78 | 0.43 | 0.56 | 0.31 | 400 | 0.42 | 0.29 | 0.15 | 0.11 |
| did not significantly inhibit | did not significantly inhibit | did not significantly inhibit | ~80 | did not significantly inhibit | did not significantly inhibit | did not significantly inhibit | did not significantly inhibit | did not significantly inhibit | C=C1CC[C@@H]2O[C@@]2(C)CC[C@H](/C(=C/CC2OC2(C)C)CO)[C@H]1C(=O)OC (stereo partly drawn) [compound VIII] |  |  |  |  |  |  |  |  |  |  |
|  |  |  |  |  |  |  |  |  | CCC/C=C\C/C=C\CCC(=O)O[C@@H](COC(=O)CCCCCCCCCCCCC)[C@H](O)[C@H](CO)NC(=O)CCCCCCCCCCC [compound 2] | 200 |  |  |  |  | 500 |  |  |  |  |
